Read-outs that look alike come from different tables or passages of the source.
What was measured:
[1] = Storage stability of solutions at 25° C., effect of pH; format: physicochemical
Description: Solutions containing about 3% of 2-butenedial buffered to pH 3, 5 and 7 were stored at 25° C. for about 3 months to determine the effect of pH on the stability of the solutions.

[2] = Use life stability at 25° C. for 14 days, effect of pH; format: physicochemical
Description: Solutions containing 2% of 2-butenedial buffered to pH 2.5, 3.5 and 4.5 were aged at 25° C. for 14 days to determine the effect of pH on use life stability.

Mycobacterium bovis BCG = format: cell-based; settings: for time within which biocidal: 0.5% 2-butenedial
[3] = Storage stability of solutions at 0-5° C., pH 4; format: physicochemical; settings: pH 4, 0-5° C.
Description: Solutions containing about 2.7% of 2-butenedial buffered to pH 4 were stored at 0-5° C. for about 3 months to determine the effect of storage temperature on the stability of the solutions.

spores of B. subtilis = assay: AOAC Sporicidal Test, B. subtilis spores; format: cell-based; settings: pH 4, 20° C., 24 hours
Description: (§1) In this example, a series of aqueous solutions containing from 2 to 0.5% of 2-butenedial, buffered at pH 4 with monopotassium hydrogen phosphate and acetic acid, were tested according to methods described in the AOAC Sporicidal Test to determine their effectiveness against spores of B. subtilis and C. sporogenes at 20° C. in 24 hours.

Solubility in water = format: physicochemical
Excerpt: 2-Butenedial is present in the composition, at use concentration, in amounts of between 0.5% and 1.0% by weight. Higher concentrations, e.g., up to 2%, or lower concentrations, e.g., above 0.25%, could be used if desired. The preferred concentration of 2-butenedial at use dilution is about 0.5% by weight. Higher concentrations of 2-butenedial may be used for shipping the composition to the point of use and the composition could then be diluted with water to the desired use concentration. The limit on the amount of 2-butenedial used in the concentrate composition is a function of the solubility of 2-butenedial in water, which is about 20% w/w. To achieve compositions with greater than 20% w/w, a water miscible co-solvent can be used. Typically, suitable co-solvents include low molecular weight alcohols and glycols. The optimum parameters for any given quantity to be sterilized or disinfected can be determined by routine experimentation using varying concentrations, treatment times, and temperatures as described herein.

spores of C. sporogenes = assay: AOAC Sporicidal Test, C. sporogenes spores; format: cell-based; settings: pH 4, 20° C., 24 hours
Description: as §1

[4] = 0.5% (w/w) butenedial, penicylinders
[5] = 1% (w/w) butenedial, penicylinders
[6] = 2% (w/w) butenedial, penicylinders

In the case of `O=CC=CC=O` [2-butenedial, 2-Butenedial], the “Percent (%) Butenedial” value ([1]; pH 3, 25° C., storage time 0 months) was 2.94%, the “Percent (%) Butenedial” value ([1]; pH 3, 25° C., storage time 1 month) was 2.4% and the “Percent (%) Butenedial” value ([1]; pH 3, 25° C., storage time 2 months) was 1.77%. The “Percent (%) Butenedial” value ([1]; pH 3, 25° C., storage time 3 months) was 0.95%, the “Percent (%) Butenedial” value ([1]; pH 5, 25° C., storage time 0 months) was 2.94% and the “Percent (%) Butenedial” value ([1]; pH 5, 25° C., storage time 1 month) was 1.06%. The “Percent (%) Butenedial” value ([1]; pH 5, 25° C., storage time 2 months) was 0.55%, the “Percent (%) Butenedial” value ([1]; pH 5, 25° C., storage time 3 months) was 0.13% and the “Percent (%) Butenedial” value ([1]; pH 7, 25° C., storage time 0 months) was 2.94%. The “Percent (%) Butenedial” value ([1]; pH 7, 25° C., storage time 1 month) was 0.12%, the “Percent (%) Butenedial” value ([1]; pH 7, 25° C., storage time 2 months) was 0.09% and the “Percent (%) Butenedial” value ([1]; pH 7, 25° C., storage time 3 months) was 0.06%. For the same compound, the acceptable storage stability ([1]; stored as one component at pH 3, 25° C.) was “about 3 months”, the “acceptable use life stability” value ([2]; 25° C., pH 2.5, 3.5 and 4.5, minimum effective concentration 0.5%) was “at least 14 days” and the “Percent (%) Butenedial” value ([2]; pH 2.5, 25° C., use life 0 days) was 2.0%. The “Percent (%) Butenedial” value ([2]; pH 2.5, 25° C., use life 2 days) was 1.94%, the “Percent (%) Butenedial” value ([2]; pH 2.5, 25° C., use life 4 days) was 1.84% and the “Percent (%) Butenedial” value ([2]; pH 2.5, 25° C., use life 7 days) was 1.78%. The “Percent (%) Butenedial” value ([2]; pH 2.5, 25° C., use life 10 days) was 1.7%, the “Percent (%) Butenedial” value ([2]; pH 2.5, 25° C., use life 14 days) was 1.6% and the “Percent (%) Butenedial” value ([2]; pH 3.5, 25° C., use life 0 days) was 2.0%. For the same compound, the “Percent (%) Butenedial” value ([2]; pH 3.5, 25° C., use life 2 days) was 1.92%, the “Percent (%) Butenedial” value ([2]; pH 3.5, 25° C., use life 4 days) was 1.76% and the “Percent (%) Butenedial” value ([2]; pH 3.5, 25° C., use life 7 days) was 1.6%. For the same compound, the “Percent (%) Butenedial” value ([2]; pH 3.5, 25° C., use life 10 days) was 1.5%, the “Percent (%) Butenedial” value ([2]; pH 3.5, 25° C., use life 14 days) was 1.4% and the “Percent (%) Butenedial” value ([2]; pH 4.5, 25° C., use life 0 days) was 2.0%. The “Percent (%) Butenedial” value ([2]; pH 4.5, 25° C., use life 2 days) was 1.73%, the “Percent (%) Butenedial” value ([2]; pH 4.5, 25° C., use life 4 days) was 1.5% and the “Percent (%) Butenedial” value ([2]; pH 4.5, 25° C., use life 7 days) was 1.32%. The “Percent (%) Butenedial” value ([2]; pH 4.5, 25° C., use life 10 days) was 1.0%, the “Percent (%) Butenedial” value ([2]; pH 4.5, 25° C., use life 14 days) was 0.8% and the “time within which biocidal” value (Mycobacterium bovis BCG; pH 4, 20° C.) was at most 30 min. The “time within which biocidal” value (Mycobacterium bovis BCG; pH 5.5, 20° C.) was at most 30 min, the “Percent Reduction of Organisms” value (Mycobacterium bovis BCG; 0.5% (w/w) butenedial, pH 4, 20° C., 5 min) was over 99.78% and the “Percent Reduction of Organisms” value (Mycobacterium bovis BCG; 0.5% (w/w) butenedial, pH 4, 20° C., 15 min) was over 99.996%. For the same compound, the “Percent Reduction of Organisms” value (Mycobacterium bovis BCG; 0.5% (w/w) butenedial, pH 4, 20° C., 30 min) was over 100%, the “Percent Reduction of Organisms” value (Mycobacterium bovis BCG; 0.5% (w/w) butenedial, pH 4, 20° C., 60 min) was over 100% and the “Percent Reduction of Organisms” value (Mycobacterium bovis BCG; 0.5% (w/w) butenedial, pH 5.5, 20° C., 5 min) was 83.5%. The “Percent Reduction of Organisms” value (Mycobacterium bovis BCG; 0.5% (w/w) butenedial, pH 5.5, 20° C., 15 min) was over 99.996%, the “Percent Reduction of Organisms” value (Mycobacterium bovis BCG; 0.5% (w/w) butenedial, pH 5.5, 20° C., 30 min) was over 100% and the “Percent Reduction of Organisms” value (Mycobacterium bovis BCG; 0.5% (w/w) butenedial, pH 5.5, 20° C., 60 min) was over 100%. The “Percent Reduction of Organisms” value (Mycobacterium bovis BCG; 1% (w/w) butenedial, pH 4, 20° C., 5 min) was over 99.97%, the “Percent Reduction of Organisms” value (Mycobacterium bovis BCG; 1% (w/w) butenedial, pH 4, 20° C., 15 min) was over 99.997% and the “Percent Reduction of Organisms” value (Mycobacterium bovis BCG; 1% (w/w) butenedial, pH 4, 20° C., 30 min) was over 100%. For the same compound, the “Percent Reduction of Organisms” value (Mycobacterium bovis BCG; 1% (w/w) butenedial, pH 4, 20° C., 60 min) was over 100%, the “Percent Reduction of Organisms” value (Mycobacterium bovis BCG; 1% (w/w) butenedial, pH 5.5, 20° C., 5 min) was 94.5% and the “Percent Reduction of Organisms” value (Mycobacterium bovis BCG; 1% (w/w) butenedial, pH 5.5, 20° C., 15 min) was over 99.997%. For the same compound, the “Percent Reduction of Organisms” value (Mycobacterium bovis BCG; 1% (w/w) butenedial, pH 5.5, 20° C., 30 min) was over 100%, the “Percent Reduction of Organisms” value (Mycobacterium bovis BCG; 1% (w/w) butenedial, pH 5.5, 20° C., 60 min) was over 100% and the “Percent Reduction of Organisms” value (Mycobacterium bovis BCG; 2% (w/w) butenedial, pH 4, 20° C., 5 min) was over 99.98%. The “Percent Reduction of Organisms” value (Mycobacterium bovis BCG; 2% (w/w) butenedial, pH 4, 20° C., 15 min) was over 99.998%, the “Percent Reduction of Organisms” value (Mycobacterium bovis BCG; 2% (w/w) butenedial, pH 4, 20° C., 30 min) was over 100% and the “Percent Reduction of Organisms” value (Mycobacterium bovis BCG; 2% (w/w) butenedial, pH 4, 20° C., 60 min) was over 100%. The “Percent Reduction of Organisms” value (Mycobacterium bovis BCG; 2% (w/w) butenedial, pH 5.5, 20° C., 5 min) was 95%, the “Percent Reduction of Organisms” value (Mycobacterium bovis BCG; 2% (w/w) butenedial, pH 5.5, 20° C., 15 min) was 99.95% and the “Percent Reduction of Organisms” value (Mycobacterium bovis BCG; 2% (w/w) butenedial, pH 5.5, 20° C., 30 min) was over 100%. The “Percent Reduction of Organisms” value (Mycobacterium bovis BCG; 2% (w/w) butenedial, pH 5.5, 20° C., 60 min) was over 100%, the minimum effective concentration (Mycobacterium bovis BCG; based on results on spores and tubercular bacteria) was 0.5% and the “% Butenedial” value ([3]; storage time 0 mo) was 2.72%. For the same compound, the “% Butenedial” value ([3]; storage time 1 mo) was 2.67%, the “% Butenedial” value ([3]; storage time 2 mo) was 2.68% and the “% Butenedial” value ([3]; storage time 3 mo) was 2.54%. For the same compound, the “Total No. of Positives(Failures/Total No. of Tests)” value (spores of B. subtilis; [4]) was 0/30, the “Total No. of Positives(Failures/Total No. of Tests)” value (spores of B. subtilis; 0.5% (w/w) butenedial, sutures) was 0/30 and the “Total No. of Positives(Failures/Total No. of Tests)” value (spores of B. subtilis; [5]) was 0/30. For the same compound, the “Total No. of Positives(Failures/Total No. of Tests)” value (spores of B. subtilis; 1% (w/w) butenedial, sutures) was 0/30, the “Total No. of Positives(Failures/Total No. of Tests)” value (spores of B. subtilis; [6]) was 0/30 and the “Total No. of Positives(Failures/Total No. of Tests)” value (spores of B. subtilis; 2% (w/w) butenedial, sutures) was 0/30. The “minimum effective concentration against spores” value (spores of B. subtilis) was “about 0.5%”, the solubility in water (Solubility in water) was “about 20 % w/w” and the “Total No. of Positives(Failures/Total No. of Tests)” value (spores of C. sporogenes; [4]) was 1/30. For the same compound, the “Total No. of Positives(Failures/Total No. of Tests)” value (spores of C. sporogenes; 0.5% (w/w) butenedial, sutures) was 0/30, the “Total No. of Positives(Failures/Total No. of Tests)” value (spores of C. sporogenes; [5]) was 0/30 and the “Total No. of Positives(Failures/Total No. of Tests)” value (spores of C. sporogenes; 1% (w/w) butenedial, sutures) was 0/30. The “Total No. of Positives(Failures/Total No. of Tests)” value (spores of C. sporogenes; [6]) was 0/30, the “Total No. of Positives(Failures/Total No. of Tests)” value (spores of C. sporogenes; 2% (w/w) butenedial, sutures) was 0/30 and the “minimum effective concentration against spores” value (spores of C. sporogenes) was “about 0.5%”.

— US20050215649A1, “Conjugated alphatic dialdehyde disinfecting and sterilizing compositions and methods of using the same” (priority 2004, published 2005)
